From the NIST ThermoML archive (doi:10.1021/je030136n)

Experiments:
[1] = Liquid, Pulse-echo method
[2] = xn = mol fraction of the nth substance listed; conditions: Liquid, Pulse-echo method, x1 = 1

CCCCCCC [heptane]
[1]
Conditions | speed of sound [m/s]
293.1 K, 111450 kPa | 1674.3
293.15 K, 100 kPa | 1151.7
293.16 K, 121580 kPa | 1707.1
293.18 K, 30400 kPa | 1341.5
293.19 K, 45590 kPa | 1416.6
293.2 K, 15200 kPa | 1256.3
293.2 K, 60790 kPa | 1484.5
293.2 K, 75990 kPa | 1546.5
293.2 K, 91190 kPa | 1603.7
293.2 K, 101320 kPa | 1639.7
298.11 K, 75990 kPa | 1531.6
298.13 K, 111450 kPa | 1660.5
298.14 K, 121580 kPa | 1692.4
298.15 K, 91190 kPa | 1589.4
298.16 K, 100 kPa | 1129.9
298.16 K, 101320 kPa | 1625.7
298.16 K, 111450 kPa | 1660.4
298.18 K, 45590 kPa | 1400.1
298.19 K, 60790 kPa | 1468.7
303.06 K, 100 kPa | 1108.9
303.07 K, 45590 kPa | 1384.4
303.1 K, 101320 kPa | 1612.6
303.1 K, 121580 kPa | 1681.2
303.13 K, 30400 kPa | 1307
303.15 K, 111450 kPa | 1647.6
303.17 K, 15200 kPa | 1218.6
303.17 K, 75990 kPa | 1517.2
303.18 K, 60790 kPa | 1453.7
303.18 K, 91190 kPa | 1575.7
308.07 K, 30400 kPa | 1290.3
308.07 K, 45590 kPa | 1368.7
308.08 K, 100 kPa | 1087.4
308.08 K, 15200 kPa | 1200.4
308.11 K, 91190 kPa | 1562.4
308.12 K, 60790 kPa | 1439
308.12 K, 75990 kPa | 1503.2
308.17 K, 121580 kPa | 1668.6
308.21 K, 111450 kPa | 1634.6
308.24 K, 101320 kPa | 1599.1
313.1 K, 100 kPa | 1066.1
313.1 K, 15200 kPa | 1182
313.1 K, 75990 kPa | 1489.2
313.12 K, 30400 kPa | 1273.3
313.12 K, 45590 kPa | 1353
313.12 K, 60790 kPa | 1424.3
313.13 K, 91190 kPa | 1549
313.13 K, 121580 kPa | 1656.4
313.2 K, 111450 kPa | 1622
313.21 K, 101320 kPa | 1586.2
318.09 K, 75990 kPa | 1475.5
318.15 K, 91190 kPa | 1535.7
318.17 K, 45590 kPa | 1337.4
318.17 K, 60790 kPa | 1409.6
318.17 K, 121580 kPa | 1644.3
318.18 K, 100 kPa | 1044.5
318.18 K, 15200 kPa | 1163.4
318.18 K, 30400 kPa | 1256.5
318.18 K, 101320 kPa | 1573.6
318.18 K, 111450 kPa | 1609.8

CCCO [propan-1-ol]
[1]
Conditions | speed of sound [m/s]
293.12 K, 15200 kPa | 1308.5
293.16 K, 121580 kPa | 1699.1
293.17 K, 111450 kPa | 1669.9
293.18 K, 101320 kPa | 1639.5
293.19 K, 100 kPa | 1223
293.2 K, 75990 kPa | 1557.2
293.2 K, 91190 kPa | 1607.6
293.21 K, 45590 kPa | 1444.2
293.21 K, 60790 kPa | 1502.8
293.22 K, 30400 kPa | 1379.9
298.11 K, 15200 kPa | 1292.9
298.12 K, 100 kPa | 1205.9
298.14 K, 45590 kPa | 1430.7
298.14 K, 60790 kPa | 1490
298.14 K, 75990 kPa | 1544.9
298.14 K, 91190 kPa | 1595.8
298.14 K, 101320 kPa | 1628
298.14 K, 111450 kPa | 1658.8
298.14 K, 121580 kPa | 1688.2
298.15 K, 30400 kPa | 1365.6
303.12 K, 100 kPa | 1188.7
303.13 K, 45590 kPa | 1417
303.14 K, 15200 kPa | 1277.3
303.15 K, 75990 kPa | 1532.5
303.17 K, 91190 kPa | 1584
303.17 K, 101320 kPa | 1616.5
303.18 K, 121580 kPa | 1677.4
303.19 K, 111450 kPa | 1647.5
303.2 K, 60790 kPa | 1477
303.24 K, 30400 kPa | 1350.9
308.11 K, 121580 kPa | 1667
308.12 K, 75990 kPa | 1520.4
308.13 K, 30400 kPa | 1336.8
308.13 K, 45590 kPa | 1403.7
308.13 K, 60790 kPa | 1464.5
308.16 K, 111450 kPa | 1636.7
308.19 K, 101320 kPa | 1605.1
308.2 K, 100 kPa | 1171.4
308.2 K, 15200 kPa | 1263.6
308.2 K, 91190 kPa | 1572.4
313.15 K, 91190 kPa | 1561.1
313.15 K, 101320 kPa | 1594.1
313.16 K, 15200 kPa | 1248.7
313.16 K, 30400 kPa | 1322.6
313.16 K, 45590 kPa | 1390.4
313.16 K, 75990 kPa | 1508.5
313.17 K, 100 kPa | 1154.5
313.17 K, 60790 kPa | 1451.8
313.17 K, 121580 kPa | 1656.2
313.22 K, 111450 kPa | 1625.8
318.11 K, 101320 kPa | 1583.3
318.12 K, 60790 kPa | 1439.6
318.12 K, 75990 kPa | 1496.8
318.12 K, 91190 kPa | 1549.9
318.14 K, 45590 kPa | 1377.4
318.16 K, 30400 kPa | 1308.7
318.17 K, 111450 kPa | 1615.3
318.17 K, 121580 kPa | 1646
318.2 K, 100 kPa | 1137.5

CCCO [propan-1-ol] + CCCCCCC
[2]
Conditions | speed of sound [m/s]
293.12 K, 15200 kPa | 1308.5
293.16 K, 121580 kPa | 1699.1
293.17 K, 111450 kPa | 1669.9
293.18 K, 101320 kPa | 1639.5
293.19 K, 100 kPa | 1223
293.2 K, 75990 kPa | 1557.2
293.2 K, 91190 kPa | 1607.6
293.21 K, 45590 kPa | 1444.2
293.21 K, 60790 kPa | 1502.8
293.22 K, 30400 kPa | 1379.9
298.11 K, 15200 kPa | 1292.9
298.12 K, 100 kPa | 1205.9
298.14 K, 45590 kPa | 1430.7
298.14 K, 60790 kPa | 1490
298.14 K, 75990 kPa | 1544.9
298.14 K, 91190 kPa | 1595.8
298.14 K, 101320 kPa | 1628
298.14 K, 111450 kPa | 1658.8
298.14 K, 121580 kPa | 1688.2
298.15 K, 30400 kPa | 1365.6
303.12 K, 100 kPa | 1188.7
303.13 K, 45590 kPa | 1417
303.14 K, 15200 kPa | 1277.3
303.15 K, 75990 kPa | 1532.5
303.17 K, 91190 kPa | 1584
303.17 K, 101320 kPa | 1616.5
303.18 K, 121580 kPa | 1677.4
303.19 K, 111450 kPa | 1647.5
303.2 K, 60790 kPa | 1477
303.24 K, 30400 kPa | 1350.9
308.11 K, 121580 kPa | 1667
308.12 K, 75990 kPa | 1520.4
308.13 K, 30400 kPa | 1336.8
308.13 K, 45590 kPa | 1403.7
308.13 K, 60790 kPa | 1464.5
308.16 K, 111450 kPa | 1636.7
308.19 K, 101320 kPa | 1605.1
308.2 K, 100 kPa | 1171.4
308.2 K, 15200 kPa | 1263.6
308.2 K, 91190 kPa | 1572.4
313.15 K, 91190 kPa | 1561.1
313.15 K, 101320 kPa | 1594.1
313.16 K, 15200 kPa | 1248.7
313.16 K, 30400 kPa | 1322.6
313.16 K, 45590 kPa | 1390.4
313.16 K, 75990 kPa | 1508.5
313.17 K, 100 kPa | 1154.5
313.17 K, 60790 kPa | 1451.8
313.17 K, 121580 kPa | 1656.2
313.22 K, 111450 kPa | 1625.8
318.11 K, 101320 kPa | 1583.3
318.12 K, 60790 kPa | 1439.6
318.12 K, 75990 kPa | 1496.8
318.12 K, 91190 kPa | 1549.9
318.14 K, 45590 kPa | 1377.4
318.16 K, 30400 kPa | 1308.7
318.17 K, 111450 kPa | 1615.3
318.17 K, 121580 kPa | 1646
318.2 K, 100 kPa | 1137.5
